Assay results as given in PubChem BioAssay AID2060883 (Molecular Pharmacology Branch, DTP, NCI, 2025).

Test system: 843782-103-R-J1-PDC complex spheroid viability
Test: Anticancer human tumor 843782-103-R-J1-PDC patient-derived lung adenocarcinoma cell line growth inhibition [RAS]
Conditions: for IC50: curve of first compound; for viability, T/C: stronger effect = lower value
Procedure, shortened: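 Tumour cells grown as complex spheroids with HUVEC endothelial cells and mesenchymal stem cells, treated with RAS pathway inhibitor combinations. Each agent spans half-log steps from near clinical Cmax, or 10 microM where Cmax is unknown.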

[1] = second compound 0.000949 µM, first compound 0.0316 µM
[2] = second compound 0.000949 µM, first compound 0.1 µM
[3] = second compound 0.000949 µM, first compound 0.316 µM
[4] = second compound 0.000949 µM, first compound 1 µM
[5] = second compound 0.000949 µM, first compound 3.16 µM
[6] = second compound 0.000949 µM, first compound 10 µM
[7] = second compound 0.003 µM, first compound 0.0316 µM
[8] = second compound 0.003 µM, first compound 0.1 µM
[9] = second compound 0.003 µM, first compound 0.316 µM
[10] = second compound 0.003 µM, first compound 1 µM
[11] = second compound 0.003 µM, first compound 3.16 µM
[12] = second compound 0.003 µM, first compound 10 µM
[13] = second compound 0.00949 µM, first compound 0.0316 µM
[14] = second compound 0.00949 µM, first compound 0.1 µM
[15] = second compound 0.00949 µM, first compound 0.316 µM
[16] = second compound 0.00949 µM, first compound 1 µM
[17] = second compound 0.00949 µM, first compound 3.16 µM
[18] = second compound 0.00949 µM, first compound 10 µM
[19] = second compound 0.03 µM, first compound 0.0316 µM
[20] = second compound 0.03 µM, first compound 0.1 µM
[21] = second compound 0.03 µM, first compound 0.316 µM
[22] = second compound 0.03 µM, first compound 1 µM
[23] = second compound 0.03 µM, first compound 3.16 µM
[24] = second compound 0.03 µM, first compound 10 µM
[25] = second compound 0.0949 µM, first compound 0.0316 µM
[26] = second compound 0.0949 µM, first compound 0.1 µM
[27] = second compound 0.0949 µM, first compound 0.316 µM
[28] = second compound 0.0949 µM, first compound 1 µM
[29] = second compound 0.0949 µM, first compound 3.16 µM
[30] = second compound 0.0949 µM, first compound 10 µM
[31] = second compound 0.3 µM, first compound 0.0316 µM
[32] = second compound 0.3 µM, first compound 0.1 µM
[33] = second compound 0.3 µM, first compound 0.316 µM
[34] = second compound 0.3 µM, first compound 1 µM
[35] = second compound 0.3 µM, first compound 3.16 µM
[36] = second compound 0.3 µM, first compound 10 µM
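Further: viability read after seven days of compound exposure.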

Structure (SMILES): CC(C)NCC(C(=O)N1CCN(c2ncnc3c2C(C)CC3O)CC1)c1ccc(Cl)cc1 (stereo not drawn) + CCn1c(-c2cccnc2C(C)OC)c2c3cc(ccc31)N1CCOC(CC(NC(=O)C(C(C)C)N(C)C(=O)C3(F)CCN(C(=O)C#CC(C)(C)N(C)C)CC3)C(=O)N3CCCC(N3)C(=O)OCC(C)(C)C2)C1
- IC50 (second compound 0.000949 µM): 0.287 µM
- IC50 (second compound 0.003 µM): 0.325 µM
- IC50 (second compound 0.00949 µM): 0.402 µM
- IC50 (second compound 0.03 µM): 0.309 µM
- IC50 (second compound 0.0949 µM): 0.403 µM
- IC50 (second compound 0.3 µM): 0.174 µM
- viability, T/C [1]: 74.5%
- viability, T/C [2]: 68.8%
- viability, T/C [3]: 48.5%
- viability, T/C [4]: 19.6%
- viability, T/C [5]: 10.8%
- viability, T/C [6]: 4.86%
- viability, T/C [7]: 74.1%
- viability, T/C [8]: 71.3%
- viability, T/C [9]: 47.5%
- viability, T/C [10]: 30%
- viability, T/C [11]: 12.4%
- viability, T/C [12]: 7.3%
- viability, T/C [13]: 68.2%
- viability, T/C [14]: 65.3%
- viability, T/C [15]: 55.9%
- viability, T/C [16]: 30%
- viability, T/C [17]: 13.9%
- viability, T/C [18]: 4.79%
- viability, T/C [19]: 72.9%
- viability, T/C [20]: 66%
- viability, T/C [21]: 50.5%
- viability, T/C [22]: 24.8%
- viability, T/C [23]: 13.8%
- viability, T/C [24]: 6.84%
- viability, T/C [25]: 70.8%
- viability, T/C [26]: 66.3%
- viability, T/C [27]: 56.9%
- viability, T/C [28]: 27.1%
- viability, T/C [29]: 11.5%
- viability, T/C [30]: 5.05%
- viability, T/C [31]: 63.4%
- viability, T/C [32]: 60%
- viability, T/C [33]: 39.8%
- viability, T/C [34]: 23.2%
- viability, T/C [35]: 11.3%
- viability, T/C [36]: 5.97%

Structure (SMILES): CC(C)n1nc(-c2ccc3oc(N)nc3c2)c2c(N)ncnc21 + CCn1c(-c2cccnc2C(C)OC)c2c3cc(ccc31)N1CCOC(CC(NC(=O)C(C(C)C)N(C)C(=O)C3(F)CCN(C(=O)C#CC(C)(C)N(C)C)CC3)C(=O)N3CCCC(N3)C(=O)OCC(C)(C)C2)C1
- IC50 (second compound 0.000949 µM): 0.00659 µM
- IC50 (second compound 0.003 µM): 0.00528 µM
- IC50 (second compound 0.00949 µM): 0.00587 µM
- IC50 (second compound 0.03 µM): 0.0051 µM
- IC50 (second compound 0.0949 µM): 0.00735 µM
- IC50 (second compound 0.3 µM): 0.00357 µM
- viability, T/C (second compound 0.000949 µM, first compound 0.000316 µM): 84.1%
- viability, T/C (second compound 0.000949 µM, first compound 0.001 µM): 66.4%
- viability, T/C (second compound 0.000949 µM, first compound 0.00316 µM): 55.4%
- viability, T/C (second compound 0.000949 µM, first compound 0.01 µM): 52.8%
- viability, T/C [1]: 28.5%
- viability, T/C [2]: 14.9%
- viability, T/C (second compound 0.003 µM, first compound 0.000316 µM): 78.1%
- viability, T/C (second compound 0.003 µM, first compound 0.001 µM): 72.7%
- viability, T/C (second compound 0.003 µM, first compound 0.00316 µM): 52.9%
- viability, T/C (second compound 0.003 µM, first compound 0.01 µM): 44.4%
- viability, T/C [7]: 27.1%
- viability, T/C [8]: 18.3%
- viability, T/C (second compound 0.00949 µM, first compound 0.000316 µM): 72.7%
- viability, T/C (second compound 0.00949 µM, first compound 0.001 µM): 62.8%
- viability, T/C (second compound 0.00949 µM, first compound 0.00316 µM): 57.3%
- viability, T/C (second compound 0.00949 µM, first compound 0.01 µM): 46.1%
- viability, T/C [13]: 28%
- viability, T/C [14]: 15.5%
- viability, T/C (second compound 0.03 µM, first compound 0.000316 µM): 70.4%
- viability, T/C (second compound 0.03 µM, first compound 0.001 µM): 69.9%
- viability, T/C (second compound 0.03 µM, first compound 0.00316 µM): 53.6%
- viability, T/C (second compound 0.03 µM, first compound 0.01 µM): 42.7%
- viability, T/C [19]: 25.3%
- viability, T/C [20]: 17.1%
- viability, T/C (second compound 0.0949 µM, first compound 0.000316 µM): 73%
- viability, T/C (second compound 0.0949 µM, first compound 0.001 µM): 64%
- viability, T/C (second compound 0.0949 µM, first compound 0.00316 µM): 70.5%
- viability, T/C (second compound 0.0949 µM, first compound 0.01 µM): 42.1%
- viability, T/C [25]: 25.6%
- viability, T/C [26]: 15.8%
- viability, T/C (second compound 0.3 µM, first compound 0.000316 µM): 71.3%
- viability, T/C (second compound 0.3 µM, first compound 0.001 µM): 66.7%
- viability, T/C (second compound 0.3 µM, first compound 0.00316 µM): 47.3%
- viability, T/C (second compound 0.3 µM, first compound 0.01 µM): 40.3%
- viability, T/C [31]: 23.7%
- viability, T/C [32]: 12.6%

Structure (SMILES): CC(Nc1ccc2c(c1)OCCn1cc(N3C(=O)OCC3C(F)F)nc1-2)C(N)=O (stereo not drawn) + CCn1c(-c2cccnc2C(C)OC)c2c3cc(ccc31)N1CCOC(CC(NC(=O)C(C(C)C)N(C)C(=O)C3(F)CCN(C(=O)C#CC(C)(C)N(C)C)CC3)C(=O)N3CCCC(N3)C(=O)OCC(C)(C)C2)C1
- IC50 (second compound 0.000949 µM): 0.0352 µM
- IC50 (second compound 0.003 µM): < 0.0316 µM
- IC50 (second compound 0.00949 µM): 0.0384 µM
- IC50 (second compound 0.03 µM): 0.0348 µM
- IC50 (second compound 0.0949 µM): 0.0421 µM
- IC50 (second compound 0.3 µM): < 0.0316 µM
- viability, T/C [1]: 52.9%
- viability, T/C [2]: 31.6%
- viability, T/C [3]: 31.5%
- viability, T/C [4]: 16.4%
- viability, T/C [5]: 14.3%
- viability, T/C [6]: 7.59%
- viability, T/C [7]: 44.2%
- viability, T/C [8]: 36.5%
- viability, T/C [9]: 25.6%
- viability, T/C [10]: 25.1%
- viability, T/C [11]: 14.9%
- viability, T/C [12]: 9.07%
- viability, T/C [13]: 53%
- viability, T/C [14]: 37.7%
- viability, T/C [15]: 23.8%
- viability, T/C [16]: 19.6%
- viability, T/C [17]: 14.1%
- viability, T/C [18]: 8.01%
- viability, T/C [19]: 52%
- viability, T/C [20]: 34.8%
- viability, T/C [21]: 24.9%
- viability, T/C [22]: 18.9%
- viability, T/C [23]: 13.8%
- viability, T/C [24]: 7.4%
- viability, T/C [25]: 56%
- viability, T/C [26]: 32.5%
- viability, T/C [27]: 24.1%
- viability, T/C [28]: 21.1%
- viability, T/C [29]: 13.9%
- viability, T/C [30]: 7.55%
- viability, T/C [31]: 50.3%
- viability, T/C [32]: 35.7%
- viability, T/C [33]: 25.6%
- viability, T/C [34]: 19.4%
- viability, T/C [35]: 10.7%
- viability, T/C [36]: 6.72%

Structure (SMILES): C[C@@H](NC(=O)c1ncnc(N)c1Cl)c1ncc(C(=O)Nc2cc(C(F)(F)F)c(Cl)cn2)s1 + CCn1c(-c2cccnc2C(C)OC)c2c3cc(ccc31)N1CCOC(CC(NC(=O)C(C(C)C)N(C)C(=O)C3(F)CCN(C(=O)C#CC(C)(C)N(C)C)CC3)C(=O)N3CCCC(N3)C(=O)OCC(C)(C)C2)C1
- IC50 (second compound 0.000949 µM): > 10 µM
- IC50 (second compound 0.003 µM): > 10 µM
- IC50 (second compound 0.00949 µM): > 10 µM
- IC50 (second compound 0.03 µM): > 10 µM
- IC50 (second compound 0.0949 µM): > 10 µM
- IC50 (second compound 0.3 µM): > 10 µM
- viability, T/C [1]: 83.6%
- viability, T/C [2]: 84.5%
- viability, T/C [3]: 81.7%
- viability, T/C [4]: 79.2%
- viability, T/C [5]: 78.3%
- viability, T/C [6]: 79.2%
- viability, T/C [7]: 77.5%
- viability, T/C [8]: 80.8%
- viability, T/C [9]: 80.2%
- viability, T/C [10]: 75.2%
- viability, T/C [11]: 89.1%
- viability, T/C [12]: 82.1%
- viability, T/C [13]: 76.6%
- viability, T/C [14]: 88.9%
- viability, T/C [15]: 84.4%
- viability, T/C [16]: 80.3%
- viability, T/C [17]: 78.6%
- viability, T/C [18]: 77.5%
- viability, T/C [19]: 88.5%
- viability, T/C [20]: 83.4%
- viability, T/C [21]: 81.4%
- viability, T/C [22]: 79.7%
- viability, T/C [23]: 95.9%
- viability, T/C [24]: 68.2%
- viability, T/C [25]: 81.2%
- viability, T/C [26]: 86.1%
- viability, T/C [27]: 81.5%
- viability, T/C [28]: 79%
- viability, T/C [29]: 88.8%
- viability, T/C [30]: 75.3%
- viability, T/C [31]: 75.7%
- viability, T/C [32]: 82.7%
- viability, T/C [33]: 77.9%
- viability, T/C [34]: 75.4%
- viability, T/C [35]: 80.1%
- viability, T/C [36]: 76.7%
